IC50 data for nine compounds are collected here from US12421253B2 (Mirati Therapeutics, Inc., priority 2020, dated 2025).

One experiment deals with T1, KRas^G12D (Homo sapiens, UniProt P01116, G12D).
T1 construct: […]; biotin (biotinylated); purchased Accelegan Inc
Put plainly: KRas binding assay (TR-FRET displacement of Cy5 labelled tracer). A general note: Time-resolved FRET reads energy transfer from a long-lived donor to a nearby acceptor.

A further experiment has as its target T2, KRas^G12R (Homo sapiens, UniProt P01116, G12R).
T2 construct: […]; biotin (biotinylated); purchased Accelegan Inc
The description is as above.

The target of the next experiment is T3, KRas^G12V (Homo sapiens, UniProt P01116, G12V).
T3 construct: […]; biotin (biotinylated); purchased Accelegan Inc
T3 sequence (P01116 1-169 isoform P01116-2 G12V): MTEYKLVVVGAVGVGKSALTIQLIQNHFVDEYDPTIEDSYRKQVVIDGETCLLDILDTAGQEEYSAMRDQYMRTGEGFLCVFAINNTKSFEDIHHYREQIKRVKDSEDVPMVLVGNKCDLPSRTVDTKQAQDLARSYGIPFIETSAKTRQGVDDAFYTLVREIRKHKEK
The experiment is described as above.

The subject of experiment [1] is AsPC-1 (G12D) cells, phospho-ERK. Put plainly: Inhibition of KRas-mediated phosphorylation of ERK (phospho-ERK/GAPDH antibody detection, LI-COR). It is filed as cell-based. As to conditions: Homo sapiens, ASPC1, 3 hours. Here is the method: (§1) AsPC-1 (G12D, ATCC CRL-1682), A549 (G12S, ATCC CCL-185), HCT116 (G13D, ATCC CCL-247) cells were grown in DMEM medium supplemented with 10% fetal bovine serum and Penicillin/Streptomycin. NCI-H358 (G12C, ATCC CRL-5807), NCI-H460 (Q61H, ATCC HTB-117), NCI-H727 (G12V, ATCC CRL-5815), MKN1 (WTdep, JCRB JCRB0252), PSN-1 (G12R, ATCC CRM-CRL-3211) cells were grown in RPMI medium supplemented with 10% fetal bovine serum, 10 mM HEPES, 10 mM Sodium Pyruvate, and Penicillin/Streptomycin. Cells were plated in black well clear bottom tissue culture treated 96 well plates (Corning, 3904) at a density of 20,000 cells/well and allowed to attach for 12-14 hours. Diluted compounds were then added in a final concentration of 0.5% DMSO. After 3 hours, 50 μL of 4.0% formaldehyde was added and the plates incubated at room temperature for 20 minutes. The plates were then dumped and permeabilized with 150 μL of ice cold 100% methanol for 10 minutes. Non-specific antibody binding to the plates was blocked using 100 μL Odyssey blocking buffer (LI-COR Biosciences, 927-60010) for 1 hour at room temperature.
(§2) The amount of phospho-ERK was determined using an antibody specific for the phosphorylated form of ERK and compared to the amount of GAPDH. Primary antibodies used for the detection were added as follows: Phospho-ERK (Cell Signaling CS-9101) diluted 1:500 and GAPDH (Millipore MAB374) diluted 1:5000 in Odyssey blocking buffer+0.05% Tween 20. The plates were incubated overnight at 4 C. The plates were washed 3× with 150 uL PBS+0.1% Tween 20.
(§3) Secondary antibodies used to visualize primary antibodies were added as follows: Goat Anti-Rabbit-800 (LI-COR, 926-32211) and Goat Anti-Mouse-680 (LI-COR, 926-68070) diluted 1:800 both in Odyssey blocking buffer+0.05% Tween 20 and were incubated for 1 hour at room temperature. The plates were washed 3× with 150 uL PBS+[…]. Plates were imaged dry on a Li—COR Odyssey CLX plate reader.
(§4) The phospho-ERK (Thr202/Tyr204) signal was normalized to the GAPDH signal for each well and percent of DMSO control values were calculated. IC50 values were generated using a 4-parameter fit of the dose response curve.

Experiment [2] deals with NCI-H460 (Q61H) cells, phospho-ERK. The experiment is described as above. It is filed as cell-based. As to conditions: Homo sapiens, 3 hours. Here is the method:
as §1, §2, §3, §4

Experiment [3] has as its system NCI-H727 (G12V) cells, phospho-ERK. The experiment is described as above. It is filed as cell-based. As to conditions: Homo sapiens, 3 hours. Here is the method: as §1, §2, §3, §4
In a further experiment the test system is MKN1 cells, pERK. Briefly: Inhibition of KRas phosphorylation of ERK (Cisbio HTRF Advanced pERK assay). Format: cell-based. As to conditions: Homo sapiens, MKN-1, 3 h, read-out: Inhibition (HTRF IC50 nM) of KRas-mediated Phosphorylation of ERK, MKN1. The method, boiled down: (§5)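 Cells were seeded overnight in RPMI with 10% FBS, then treated for 3 h at 37 °C with 10-dose, 3-fold compound titrations from 10 uM (0.8% DMSO final). After lysis at 4 °C, phospho-ERK was quantified by HTRF using d2- and cryptate-labelled antibodies; 0.2 uM trametinib served as minimum control.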

In a further experiment the test system is PSN1 cells, pERK. Described as above. It is filed as cell-based. As to conditions: Homo sapiens, PSN1, 3 h, read-out: Inhibition (HTRF IC50 nM) of KRas-mediated Phosphorylation of ERK, PSN1. The method, boiled down: as §5
In another experiment the target is T4, KRas^WT (Homo sapiens, UniProt P01116).
T4 construct: […]; biotin (biotinylated); purchased Accelegan Inc
T4 sequence (P01116 1-169 isoform P01116-2): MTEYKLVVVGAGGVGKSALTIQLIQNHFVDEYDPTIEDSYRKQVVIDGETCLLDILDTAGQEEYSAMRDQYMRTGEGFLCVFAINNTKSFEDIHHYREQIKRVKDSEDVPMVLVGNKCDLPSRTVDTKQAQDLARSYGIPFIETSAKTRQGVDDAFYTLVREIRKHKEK
Briefly: KRas binding assay (TR-FRET displacement of Cy5 labelled tracer).

A further experiment concerns the target T5, KRas^G12A (Homo sapiens, UniProt P01116, G12A).
T5 construct: […]; biotin (biotinylated); purchased Accelegan Inc
The description is as above.

For a further experiment, the target named is T6, KRas^G12S (Homo sapiens, UniProt P01116, G12S).
T6 construct: […]; biotin (biotinylated); purchased Accelegan Inc
T6 sequence (P01116 1-169 isoform P01116-2 G12S): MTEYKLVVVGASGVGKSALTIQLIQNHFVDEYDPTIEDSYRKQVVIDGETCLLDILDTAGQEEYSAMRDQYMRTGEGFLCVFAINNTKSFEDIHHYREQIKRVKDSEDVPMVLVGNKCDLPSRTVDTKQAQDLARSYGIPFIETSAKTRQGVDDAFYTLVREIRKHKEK
The description is as above.

Another experiment concerns the target KRas^G12C (Homo sapiens, UniProt P01116, G12C). Put plainly: biochemical.
Another experiment has as its target KRas^G13D (Homo sapiens, UniProt P01116, G13D). Put plainly: biochemical.
The target in a further experiment is KRas^Q61H (Homo sapiens, UniProt P01116, Q61H). Briefly: biochemical.
Sequence of KRas^Q61H (P01116 1-169 isoform P01116-2 Q61H): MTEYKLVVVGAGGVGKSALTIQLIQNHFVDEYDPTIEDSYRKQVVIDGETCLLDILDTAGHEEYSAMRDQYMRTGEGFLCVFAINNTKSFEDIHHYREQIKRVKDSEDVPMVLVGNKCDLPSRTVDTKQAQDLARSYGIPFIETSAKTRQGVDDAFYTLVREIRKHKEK

T2 sequence (P01116 1-169 isoform P01116-2 G12R): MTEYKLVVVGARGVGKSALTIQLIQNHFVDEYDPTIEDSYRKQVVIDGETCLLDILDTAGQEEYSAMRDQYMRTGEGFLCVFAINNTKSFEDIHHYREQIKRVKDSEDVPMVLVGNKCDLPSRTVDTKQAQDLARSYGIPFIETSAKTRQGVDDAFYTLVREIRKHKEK
T1 sequence (P01116 1-169 isoform P01116-2 G12D): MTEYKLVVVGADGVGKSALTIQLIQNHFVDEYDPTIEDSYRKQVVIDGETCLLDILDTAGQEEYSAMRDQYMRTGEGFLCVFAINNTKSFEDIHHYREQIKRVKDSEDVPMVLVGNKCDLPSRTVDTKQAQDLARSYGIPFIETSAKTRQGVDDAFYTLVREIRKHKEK
Sequence of KRas^G13D (P01116 1-169 isoform P01116-2 G13D): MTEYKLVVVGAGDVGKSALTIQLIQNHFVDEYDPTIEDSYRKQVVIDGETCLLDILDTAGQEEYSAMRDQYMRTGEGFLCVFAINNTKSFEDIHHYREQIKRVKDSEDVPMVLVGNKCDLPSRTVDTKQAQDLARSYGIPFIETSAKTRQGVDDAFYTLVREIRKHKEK
T5 sequence (P01116 1-169 isoform P01116-2 G12A): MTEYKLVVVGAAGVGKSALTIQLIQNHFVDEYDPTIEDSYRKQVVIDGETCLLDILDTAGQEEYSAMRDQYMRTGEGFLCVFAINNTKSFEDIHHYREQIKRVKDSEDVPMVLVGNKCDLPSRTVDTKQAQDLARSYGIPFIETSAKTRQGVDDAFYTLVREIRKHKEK
Sequence of KRas^G12C (P01116 1-169 isoform P01116-2 G12C): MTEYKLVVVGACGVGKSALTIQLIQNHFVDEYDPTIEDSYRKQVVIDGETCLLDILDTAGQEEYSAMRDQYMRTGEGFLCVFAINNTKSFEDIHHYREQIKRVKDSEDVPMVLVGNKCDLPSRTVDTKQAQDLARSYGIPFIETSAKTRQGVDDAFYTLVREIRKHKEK
Procedure for KRas^G12A: (§6) The ability of a compound to bind to KRas was measured using a TR-FRET displacement assay. […] After a 60-minute incubation at room temperature, the reaction was measured using a BMG LABTECH CLARIO star Plus via TR-FRET. […] The POC values were fit to a 4-parameter IC50 equation and the IC50 value reported.
Procedure for KRas^G12C: as §6
Procedure for KRas^G12D: as §6
Procedure for KRas^G12R: as §6
Procedure for KRas^G12S: as §6
Procedure for KRas^G12V: as §6
Procedure for KRas^G13D: as §6
Procedure for KRas^Q61H: as §6
Procedure for KRas^WT: as §6

Turning to `CCc1c(F)ccc2cc(O)cc(N3CCc4c(nc(OC[C@@]56CCCN5C[C@H](F)C6)nc4NCc4ccc5nncn5c4)C3)c12` [Example 31, 4-(4-(([1,2,4]triazolo[4,3-a]pyridin-6-ylmethyl)amino)-2-(((2R,7aS)-2-fluorohexahydro-1H-pyrrolizin-7a-yl)methoxy)-5,6-dihydropyrido[3,4-d]pyrimidin-7(8H)-yl)-5-ethyl-6-fluoronaphthalen-2-ol], the IC50 on KRas^G12D was 31 nM; at KRas^G12R it was ≤ 2 nM; on KRas^G12V, ≤ 2 nM; in experiment [1], 3540 nM; in experiment [2], > 10000 nM; in [3], 3320 nM. For the same compound, the IC50 is 637 nM with MKN1 cells, pERK and ≥ 10000 nM in the experiment on PSN1 cells, pERK.

As for `CCc1c(F)ccc2cc(O)cc(N3CCc4c(nc(OC[C@@]56CCCN5C[C@H](F)C6)nc4N4CCCCC(S(C)(=O)=O)C4)C3)c12` (stereo partly drawn) [Example 28, 5-ethyl-6-fluoro-4-(2-(((2R,7aS)-2-fluorohexahydro-1H-pyrrolizin-7a-yl)methoxy)-4-(3-(methylsulfonyl)azepan-1-yl)-5,6-dihydropyrido[3,4-d]pyrimidin-7(8H)-yl)naphthalen-2-ol], the IC50 is ≤ 2 nM on KRas^G12D; ≤ 2 nM at KRas^G12R; ≤ 2 nM at KRas^G12V; 1010 nM in [1]; 494 nM in experiment [2]; 987 nM in [3]. Further, the IC50 was 36 nM in the experiment with MKN1 cells, pERK and ≥ 10000 nM in the experiment on PSN1 cells, pERK.

On to `CCc1c(F)ccc2cc(O)cc(N3CCc4c(nc(OC[C@@]56CCCN5C[C@H](F)C6)nc4N4CC5CC(O)CC4C5)C3)c12` (stereo partly drawn) [Example 35, 6-(7-(8-ethyl-7-fluoro-3-hydroxynaphthalen-1-yl)-2-(((2R,7aS)-2-fluorohexahydro-1H-pyrrolizin-7a-yl)methoxy)-5,6,7,8-tetrahydropyrido[3,4-d]pyrimidin-4-yl)-6-azabicyclo[3.2.1]octan-3-ol], for which the IC50 on KRas^G12D is 7 nM; at KRas^G12R, ≤ 2 nM; on KRas^G12V, 52 nM; in experiment [1], 2360 nM; in experiment [2] it was 1430 nM; in experiment [3] it was 1620 nM. Further, the IC50 in the experiment on MKN1 cells, pERK came out at 159 nM; with PSN1 cells, pERK, 5720 nM.

In the case of `CCc1c(F)ccc2cc(O)cc(N3CCc4c(nc(OC[C@@]56CCCN5C[C@H](F)C6)nc4N4CCCC(O)C4)C3)c12` (stereo partly drawn) [Example 27, 1-(7-(8-ethyl-7-fluoro-3-hydroxynaphthalen-1-yl)-2-(((2R,7aS)-2-fluorohexahydro-1H-pyrrolizin-7a-yl)methoxy)-5,6,7,8-tetrahydropyrido[3,4-d]pyrimidin-4-yl)piperidin-3-ol], the IC50 on KRas^G12D is ≤ 2 nM; on KRas^G12R it was ≤ 2 nM; on KRas^G12V, ≤ 2 nM; in [1], 808 nM; in experiment [2] it was 282 nM; in experiment [3], 549 nM. Besides, the IC50 in the experiment with MKN1 cells, pERK turned out to be 9 nM; in the experiment with PSN1 cells, pERK, 2720 nM.

As to `CCc1c(F)ccc2cc(O)cc(N3CCc4c(nc(OC[C@@]56CCCN5C[C@H](F)C6)nc4N4CCCC5(CC(=O)N5)C4)C3)c12` (stereo partly drawn) [Example 21, 6-(7-(8-ethyl-7-fluoro-3-hydroxynaphthalen-1-yl)-2-(((2R,7aS)-2-fluorohexahydro-1H-pyrrolizin-7a-yl)methoxy)-5,6,7,8-tetrahydropyrido[3,4-d]pyrimidin-4-yl)-1,6-diazaspiro[3.5]nonan-2-one], the IC50 at KRas^G12D is ≤ 2 nM; on KRas^G12R it was ≤ 2 nM; at KRas^G12V, ≤ 2 nM; in experiment [1] it was 204 nM; in [2], 202 nM; in experiment [3] it was 466 nM. Also, the IC50 came to 9 nM in the experiment on MKN1 cells, pERK and 646 nM in the experiment with PSN1 cells, pERK.

With `CCc1c(F)ccc2cc(O)cc(N3CCc4c(nc(OC[C@@]56CCCN5C[C@H](F)C6)nc4N4CCCC(n5cccn5)C4)C3)c12` (stereo partly drawn) [Example 67, 4-(4-(3-(1H-pyrazol-1-yl)piperidin-1-yl)-2-(((2R,7aS)-2-fluorohexahydro-1H-pyrrolizin-7a-yl)methoxy)-5,6-dihydropyrido[3,4-d]pyrimidin-7(8H)-yl)-5-ethyl-6-fluoronaphthalen-2-ol], the IC50 at KRas^G12D was 11 nM; on KRas^G12R, ≤ 2 nM; on KRas^G12V it was 7 nM; in experiment [1], 1570 nM; in experiment [2], 225 nM; in [3], 876 nM. In addition, the IC50 in the experiment with MKN1 cells, pERK was 112 nM; with PSN1 cells, pERK, ≥ 10000 nM.

For `CCc1c(F)ccc2cc(O)cc(N3CCc4c(nc(OC[C@@]56CCCN5C[C@H](F)C6)nc4N4CCC(c5[nH]ncc5N)C4)C3)c12` (stereo partly drawn) [Example 26, 4-(4-(3-(4-amino-1H-pyrazol-5-yl)pyrrolidin-1-yl)-2-(((2R,7aS)-2-fluorohexahydro-1H-pyrrolizin-7a-yl)methoxy)-5,6-dihydropyrido[3,4-d]pyrimidin-7(8H)-yl)-5-ethyl-6-fluoronaphthalen-2-ol], the half-inhibitory concentration (IC50) on KRas^WT amounted to 24 nM; on KRas^G12A it was 7 nM; on KRas^G12D, 110 nM; at KRas^G12R it was 5 nM; at KRas^G12S it was 10 nM; on KRas^G12V, 4 nM. Besides, the IC50 in experiment [1] came to 10000 nM; in experiment [2], 3260 nM; in experiment [3], 3120 nM; against KRas^G12C, 7 nM; at KRas^G13D, 34 nM; against KRas^Q61H, 22 nM.

Turning to `CCc1c(F)ccc2cc(O)cc(N3CCc4c(nc(OC[C@@]56CCCN5C[C@H](F)C6)nc4N4CCCn5nc(N)cc5C4)C3)c12` [Example 18, 4-(4-(2-amino-7,8-dihydro-4H-pyrazolo[1,5-a][1,4]diazepin-5(6H)-yl)-2-(((2R,7aS)-2-fluorohexahydro-1H-pyrrolizin-7a-yl)methoxy)-5,6-dihydropyrido[3,4-d]pyrimidin-7(8H)-yl)-5-ethyl-6-fluoronaphthalen-2-ol], the IC50 at KRas^G12D was ≤ 2 nM; at KRas^G12R, ≤ 2 nM; at KRas^G12V, ≤ 2 nM; in experiment [1], 182 nM; in experiment [2], 317 nM; in [3], 503 nM. For the same compound, the IC50 is 22 nM in the experiment on MKN1 cells, pERK and ≥ 10000 nM in the experiment with PSN1 cells, pERK.

Consider `CCc1c(F)ccc2cc(O)cc(N3CCc4c(nc(OC[C@@]56CCCN5C[C@H](F)C6)nc4N4CCC(O)C(CO)CC4)C3)c12` (stereo partly drawn) [Example 33, 1-(7-(8-ethyl-7-fluoro-3-hydroxynaphthalen-1-yl)-2-(((2R,7aS)-2-fluorohexahydro-1H-pyrrolizin-7a-yl)methoxy)-5,6,7,8-tetrahydropyrido[3,4-d]pyrimidin-4-yl)-5-(hydroxymethyl)azepan-4-ol], for which the IC50 at KRas^G12D was 5 nM; on KRas^G12R, ≤ 2 nM; at KRas^G12V it was ≤ 2 nM; in experiment [1], 1360 nM; in experiment [2], 398 nM; in experiment [3], 1860 nM. The IC50 with MKN1 cells, pERK is 11 nM; in the experiment with PSN1 cells, pERK it was ≥ 10000 nM.

Usually IC50 stands for the concentration needed to halve the response being measured.
